Here are results for 1 molecule from patent US9114171B2, “Racecadotril liquid compositions” (McNeil-PPC, Inc., priority 2012, dated 2015).

Format in all cases: physicochemical
A short description of data set [1]: Stability of Racecadotril in Beta-Hydroxypropyl-Cyclodextrin (Beta-HPCD), Table 5. Here is the method:
Formulations of racecadotril in beta-hydroxypropyl-cyclodextrin were evaluated (Table 5).
(§1) Test Methods Sample Preparation: • 1. Pipet 1 mL of Racecadotril solution into a 100 mL volumetric flask (V.F.) • 2. Dilute to volume with the same buffer used in the solution preparation. • 3. Further dilute the sample solution to about 0.1 mg/mL if necessary. […] Parameters may be modified to optimize chromatography. • The assay of Racecadotril is determined by using the external standard injected. The degradation products levels are determined by % peak area relative to the Racecadotril peak. Chromatographic Conditions (European Pharmacopoeia Racecadotril Method): […]

Data set [2] in a line: Stability of Racecadotril in Water. The following applies: room temperature and 40° C. How it is done: as §1, with “For comparative purposes, the stability of racecadotril was tested at room temperature and at 40° C. Test” for “Test”
Data set [3] can be described thus: Stability of Racecadotril in Buffer. Here is the method:
as §1, with “For comparative purposes, the stability of racecadotril was analyzed when solubilized in pH 4.5 Acetate buffer and pH 4.5 Citrate buffer (Table 4). Test” for “Test”

For `CC(=O)SCC(Cc1ccccc1)C(=O)NCC(=O)OCc1ccccc1` (racemic) [Racecadotril], the “solubility utilizing Beta-HPCD” value in data set [1] is “higher solubility was achieved utilizing the Beta-HPCD”. Besides, in data set [1] (40° C.), the “stability in Beta-HPCD versus buffers alone” value is given as “stability is similar to that in buffers alone”. The racecadotril present entry in data set [2] (in water, at 1 week) is “less than 1%”. In addition, the stability in water result in data set [2] is given as “unstable after 12 hours”. In addition, the “solubility in buffer versus water” value in data set [3] is “more soluble in buffer than in water”. Also, the “stability in buffer versus water” value in data set [3] (40° C. and 4 weeks) is “more stable in a buffer than in water”.
